Results published in patent US9458133B2, “Isoquinolines as potassium ion channel inhibitors” (BRISTOL-MYERS SQUIBB COMPANY, priority 2013, dated 2016).

Target: T1, human Kv 1.5 (Homo sapiens, UniProt P22460)
T1 construct: expressed in transfected cells; host or cells: mouse L-929 fibroblasts stably expressing human Kv1.5
Test: Block of IKur current in patch clamped L-929 cells stably expressing human Kv1.5
Type: cell-based
Conditions: L929, 0.3 μM; patch clamped mammalian L-929 cells expressing human Kv1.5 (IKur); read-out: KV1_5% Inh L929 @0.3 μM
From the text: Synders, D. J. et al., “A rapidly activating and slowly inactivating potassium channel cloned from human heart: functional analysis after stable mammalian cell culture expression”, J. Gen. Physiol., 101:513-543 (1993). […]

T1 sequence (P22460 whole entry): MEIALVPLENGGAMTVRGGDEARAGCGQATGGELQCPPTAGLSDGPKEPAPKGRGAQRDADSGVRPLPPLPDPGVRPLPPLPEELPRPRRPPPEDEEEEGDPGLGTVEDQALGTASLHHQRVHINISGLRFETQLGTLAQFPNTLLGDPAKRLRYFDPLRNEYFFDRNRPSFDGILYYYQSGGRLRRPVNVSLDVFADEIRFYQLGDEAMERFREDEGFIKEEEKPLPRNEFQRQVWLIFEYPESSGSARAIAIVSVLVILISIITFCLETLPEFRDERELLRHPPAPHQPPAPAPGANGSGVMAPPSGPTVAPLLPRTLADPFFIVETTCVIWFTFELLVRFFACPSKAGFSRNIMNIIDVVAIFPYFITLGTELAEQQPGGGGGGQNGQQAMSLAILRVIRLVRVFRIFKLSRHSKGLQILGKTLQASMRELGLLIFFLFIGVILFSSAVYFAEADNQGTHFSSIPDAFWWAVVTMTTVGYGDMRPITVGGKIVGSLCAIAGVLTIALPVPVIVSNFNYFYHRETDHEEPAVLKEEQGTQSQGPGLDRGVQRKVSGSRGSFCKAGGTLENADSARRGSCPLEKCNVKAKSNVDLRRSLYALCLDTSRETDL

Row | Structure (SMILES) | inhibition at 0.3 µM
1 | CC(Nc1nc(Cl)c(-c2cccc(S(N)(=O)=O)c2)c2cccc(-c3ccccc3)c12)c1ccccc1 (stereo not drawn) [Example 79, 3-(3-chloro-8-phenyl-1-(1-phenylethylamino)isoquinolin-4-yl)benzenesulfonamide] | 67.5%
2 | CC(C)C(Nc1nc(Cl)c(-c2cncc(S(N)(=O)=O)c2)c2cccc(-c3ccccc3)c12)c1ccccn1 (stereo not drawn) [Example 80, 5-(3-chloro-1-(2-methyl-1-(pyridin-2-yl)propylamino)-8-phenylisoquinolin-4-yl)pyridine-3-sulfonamide] | 92.5%
3 | NS(=O)(=O)c1cncc(-c2cnc(NCC3CCCCO3)c3c(-c4ccccc4)cccc23)c1 (stereo not drawn) [Example 82, 5-(8-phenyl-1-((tetrahydro-2H-pyran-2-yl)methylamino)isoquinolin-4-yl)pyridine-3-sulfonamide] | 85%
4 | Clc1nc(NCc2ccccc2)c2c(-c3ccccc3)cccc2c1C1=CCOCC1 [Example 83, N-benzyl-3-chloro-4-(3,6-dihydro-2H-pyran-4-yl)-8-phenylisoquinolin-1-amine] | 19.3%

The remaining lines, values ahead:

Row | inhibition at 0.3 µM | Structure (SMILES)
5 | 98.4% | NS(=O)(=O)c1cccc(-c2c(Cl)nc(NCc3ccccn3)c3c(-c4ccccc4)cccc23)c1 [Example 84, 3-(3-chloro-8-phenyl-1-(pyridin-2-ylmethylamino)isoquinolin-4-yl)benzenesulfonamide]
6 | 99% | NS(=O)(=O)c1cccc(-c2cnc(NCc3ccccn3)c3c(-c4ccccc4)cccc23)c1 [Example 85, 3-(8-phenyl-1-(pyridin-2-ylmethylamino)isoquinolin-4-yl)benzenesulfonamide]
